Measurements as given in patent US11318137B2, “Quinazoline compounds as modulators of Ras signaling” (VANDERBILT UNIVERSITY, priority 2017, dated 2022).

Columns and labels:
Son of Sevenless (SOS) = target: T1, Son of Sevenless (SOS) (Homo sapiens, UniProt Q07889); assay: Binding to SOS, fluorescence polarization anisotropy (FPA) displacement of FITC-conjugated probe; settings: binding affinity calculated from IC50 of FITC-probe displacement, read-out: Binding affinities (binding affinity to SOS)
T1 sequence (Q07889 564-1049 limits assumed): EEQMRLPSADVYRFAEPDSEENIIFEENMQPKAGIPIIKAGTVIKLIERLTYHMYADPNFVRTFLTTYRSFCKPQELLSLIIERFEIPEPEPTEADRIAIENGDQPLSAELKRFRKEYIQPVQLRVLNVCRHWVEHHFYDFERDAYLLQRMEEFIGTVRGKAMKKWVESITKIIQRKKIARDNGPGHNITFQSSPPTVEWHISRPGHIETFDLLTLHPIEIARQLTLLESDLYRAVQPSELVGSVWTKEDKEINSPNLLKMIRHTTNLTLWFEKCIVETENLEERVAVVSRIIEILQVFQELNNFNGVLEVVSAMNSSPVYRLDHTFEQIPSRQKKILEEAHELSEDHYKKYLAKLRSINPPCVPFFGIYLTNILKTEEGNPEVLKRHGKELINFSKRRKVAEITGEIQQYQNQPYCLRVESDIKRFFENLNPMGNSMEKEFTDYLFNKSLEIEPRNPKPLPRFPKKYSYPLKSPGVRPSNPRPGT
Method: Compounds of the present invention were tested for their ability to the Ras guanine exchange factor (GEF) Son of Sevenless (SOS). Binding to SOS was measured using a Fluorescence polarization anisotropy (FPA) assay that assesses the ability of a test compound to displace a fluorescent FITC-conjugated compound. Briefly, the labeled probe compound is incubated with SOS in buffer. Changes in anisotropy indicative of displacement of the labeled probe for a test compound are assessed over a dose range of test compound. Data was analyzed by plotting fluorescence anisotropy values as a function of compound concentration. IC50 values were determined using a four-parameter dose-response (variable slope) and binding affinities were calculated from this IC50 value. This assay is performed in a method analogous to the assay disclosed in: Burns, M. C.; Sun, Q.; Daniels, R. N.; Camper, D. V.; Kennedy, J. P.; Phan, J.; Olejniczak, E. O.; Lee, T.; Waterson, A. G.; Rossanese, O. W.; Fesik, S. W. “Approach for targeting Ras with small molecules that activate SOS-mediated nucleotide exchange” Proc. Natl. Acad. Sci. 2014; 11(9): 3401-3406. PMCID: PMC3948241.

[1] = target: T2, SOS-mediated nucleotide exchange on Ras (Homo sapiens, UniProt Q07889); assay: SOS-mediated nucleotide exchange on Ras (BODIPY-GDP fluorescence); format: biochemical; settings: Ras loaded with BODIPY-GDP, GTP and SOS added; EC50 from derived exchange rates
T2 sequence (Q07889 1-1333): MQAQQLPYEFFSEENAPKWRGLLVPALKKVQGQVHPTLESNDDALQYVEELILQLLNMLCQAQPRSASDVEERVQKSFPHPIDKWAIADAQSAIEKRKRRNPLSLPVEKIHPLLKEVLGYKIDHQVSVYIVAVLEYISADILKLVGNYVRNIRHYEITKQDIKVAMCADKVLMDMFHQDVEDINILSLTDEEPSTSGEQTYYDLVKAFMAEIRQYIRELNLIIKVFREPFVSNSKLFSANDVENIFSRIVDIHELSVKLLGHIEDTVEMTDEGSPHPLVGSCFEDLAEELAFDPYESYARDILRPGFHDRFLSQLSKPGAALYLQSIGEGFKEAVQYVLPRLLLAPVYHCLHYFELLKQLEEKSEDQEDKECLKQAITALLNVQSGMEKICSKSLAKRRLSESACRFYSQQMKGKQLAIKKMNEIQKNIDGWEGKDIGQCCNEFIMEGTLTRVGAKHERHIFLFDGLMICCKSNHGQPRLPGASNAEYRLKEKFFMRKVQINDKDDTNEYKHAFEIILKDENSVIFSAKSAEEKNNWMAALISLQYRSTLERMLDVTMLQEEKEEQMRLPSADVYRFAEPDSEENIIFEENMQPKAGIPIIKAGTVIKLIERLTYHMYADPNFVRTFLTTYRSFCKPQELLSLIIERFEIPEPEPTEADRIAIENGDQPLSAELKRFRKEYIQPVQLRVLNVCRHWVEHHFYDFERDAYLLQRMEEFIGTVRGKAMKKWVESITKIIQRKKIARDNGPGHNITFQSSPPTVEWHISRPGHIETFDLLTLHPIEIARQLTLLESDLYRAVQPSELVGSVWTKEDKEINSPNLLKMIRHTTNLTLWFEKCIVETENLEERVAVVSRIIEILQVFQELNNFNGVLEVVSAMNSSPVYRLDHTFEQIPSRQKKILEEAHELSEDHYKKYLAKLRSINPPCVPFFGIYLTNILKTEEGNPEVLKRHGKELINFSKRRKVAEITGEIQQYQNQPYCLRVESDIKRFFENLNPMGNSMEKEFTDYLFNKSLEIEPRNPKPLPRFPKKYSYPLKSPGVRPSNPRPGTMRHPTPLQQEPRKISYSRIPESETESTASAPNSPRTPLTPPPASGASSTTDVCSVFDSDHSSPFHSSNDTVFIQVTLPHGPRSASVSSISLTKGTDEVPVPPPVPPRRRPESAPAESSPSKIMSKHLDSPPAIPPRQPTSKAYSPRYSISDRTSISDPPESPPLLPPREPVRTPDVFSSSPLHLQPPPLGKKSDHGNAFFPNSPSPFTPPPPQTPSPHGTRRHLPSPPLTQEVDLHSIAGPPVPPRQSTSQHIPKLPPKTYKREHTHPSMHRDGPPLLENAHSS
Method: A. SOS-Mediated Nucleotide Exchange on Ras
Compounds of the present invention were tested for their ability to modify the rate at which Ras exchanges a labeled nucleotide guanosine diphosphate (GDP) analog for guanosine triphosphate (GTP). Briefly, test compounds, then GTP and the Ras GEF SOS (Son of Sevenless) are added to a buffered solution containing Ras protein loaded with BODIPY-GDP. Changes in fluorescence indicating exchange of the labeled GDP for GTP are monitored over time. Raw fluorescence data was fit to a single exponential decay function and derived rates were plotted as mean values. EC50 values were calculated by plotting mean derived rates as a function of compound concentration and fit using a four-parameter dose-response curve. Full assay details are disclosed in: Burns, M. C.; Sun, Q.; Daniels, R. N.; Camper, D. V.; Kennedy, J. P.; Phan, J.; Olejniczak, E. O.; Lee, T.; Waterson, A. G.; Rossanese, O. W.; Fesik, S. W. “Approach for targeting Ras with small molecules that activate SOS-mediated nucleotide exchange” Proc. Natl. Acad. Sci. 2014; 11(9): 3401-3406. PMCID: PMC3948241.

| SMILES | Ki (Son of Sevenless (SOS)) [µM] | EC50 [1] [µM] |
| --- | --- | --- |
| C[C@@H](Nc1nc(Nc2ccc(F)c(Cl)c2)nc2c(NCCO)cccc12)C1CC1 [Example 54, (R)-2-((2-((3-chloro-4-fluorophenyl)amino)-4-((1-cyclopropylethyl)amino)quinazolin-8-yl)amino)ethan-1-ol] | > 5 | > 30 |
| C[C@@H](Nc1nc(Nc2ccc(F)c(Cl)c2)nc2c(C#N)cccc12)C1CC1 [Example 55, (R)-2-((3-chloro-4-fluorophenyl)amino)-4-((1-cycloprprpylethyl)amino)quinazoline-8-carbonitrile] | > 5 | > 30 |
| C[C@@H](Nc1nc(Nc2ccc(F)c(Cl)c2)nc2c(CN)cccc12)C1CC1 [Example 56, (R)-8-(aminomethyl)-N^2-(3-chloro-4-fluorophenyl)-N^4-(1-cyclopropylethyl)quinazoline-2,4-diamine] | > 5 | 1 to 5 |
| C[C@@H](Nc1nc(Nc2ccc(F)c(Cl)c2)nc2c(CCN)cccc12)C1CC1 [Example 60, (R)-8-(2-aminoethyl)-N^2-(3-chloro-4-fluorophenyl)-N^4-(1-cyclopropylethyl)quinazoline-2,4-diamine] | 1 to 5 | 1 to 5 |
| C[C@@H](Nc1nc(Nc2ccc(F)c(Cl)c2)nc2c(C3=CCNCC3)cccc12)C1CC1 [Example 62, (R)—N^2-(3-chloro-4-fluorophenyl)-N^4-(1-cyclopropylethyl)-8-(1,2,3,6-tetrahydropyridin-4-yl)quinazoline-2,4-diamine] | 1 to 5 | < 1 |
| C[C@@H](Nc1nc(NCCc2c[nH]cn2)nc2c(C3=CCNCC3)cccc12)C1CC1 [Example 63, (R)—N^2-(2-(1H-imidazol-4-yl)ethyl)-N^4-(1-cyclopropylethyl)-8-(1,2,3,6-tetrahydropyridin-4-yl)quinazoline-2,4-diamine] | > 5 | > 30 |
| C[C@@H](Nc1nc(Nc2ccc(F)c(Cl)c2)nc2c(NCCN)cccc12)C1CC1 [Example 65, (R)—N^8-(2-aminoethyl)-N^2-(3-chloro-4-fluorophenyl)-N^4-(1-cyclopropylethyl)quinazoline-2,4,8-triamine] | > 5 | 5 to 30 |
| C[C@@H](Nc1nc(Nc2ccc(F)c(Cl)c2)nc2c(NCCCN)cccc12)C1CC1 [Example 66, (R)—N^8-(3-aminopropyl)-N^2-(3-chloro-4-fluorophenyl)-N^4-(1-cyclopropylethyl)quinazoline-2,4,8-triamine] | > 5 | 5 to 30 |
| C[C@@H](Nc1nc(Nc2ccc(F)c(Cl)c2)nc2c(NCCN(C)C)cccc12)C1CC1 [Example 67, (R)—N^2-(3-chloro-4-fluorophenyl)-N^4-(1-cyclopropylethyl)-N8-(2-(dimethylamino)ethyl)quinazoline-2,4,8-triamine] | > 5 | 5 to 30 |
| NCCc1cccc2c(NC(C3CC3)C3CC3)nc(NCC3CCCCC3)nc12 [Example 74, 8-(2-aminoethyl)-N^2-(cyclohexylmethyl)-N^4-(dicyclopropylmethyl)quinazoline-2,4-diamine] | 1 to 5 | 1 to 5 |
| C[C@@H](Nc1nc(NCC2CCCCC2)nc2c(CCN)cccc12)C1CC1 [Example 77] | < 1 | 1 to 5 |
| C[C@@H](Nc1nc(NCC2CCCCC2)nc2c(C3=CCNCC3)cccc12)C(C)(C)C [Example 81, (R)—N^2-(cyclohexylmethyl)-N^4-(3,3-dimethylbutan-2-yl)-8-(1,2,3,6-tetrahydropyridin-4-yl)quinazoline-2,4-diamine] | > 5 | 1 to 5 |
| C[C@@H](Nc1nc(Nc2ccc(F)c(Cl)c2)nc2c(CCN)cccc12)C(C)(C)C [Example 82, (R)-8-(2-aminoethyl)-N^2-(3-chloro-4-fluorophenyl)-N^4-(3,3-dimethylbutan-2-yl)quinazoline-2,4-diamine] | > 5 | 5 to 30 |
| C[C@@H](Nc1nc(NCC2CCCCC2)nc2c(CCN)cccc12)C(C)(C)C [Example 84, (R)-8-(2-aminoethyl)-N^2-(cyclohexylmethyl)-N^4-(3,3-dimethylbutan-2-yl)quinazoline-2,4-diamine] | 1 to 5 | 5 to 30 |
| C[C@@H](Nc1nc(NCc2cccc(Cl)c2F)nc2c(CCN)cccc12)C(C)(C)C [Example 85, (R)-8-(2-aminoethyl)-N^2-(3-chloro-2-fluorobenzyl)-N^4-(3,3-dimethylbutan-2-yl)quinazoline-2,4-diamine] | 1 to 5 | 5 to 30 |
| C[C@@H](Nc1nc(NCC2CCCCC2)nc2c(CN)cccc12)C(C)(C)C [Example 86, (R)-8-(aminomethyl)-N^2-(cyclohexylmethyl)-N^4-(3,3-dimethylbutan-2-yl)quinazoline-2,4-diamine] | > 5 | 5 to 30 |
| C[C@@H](Nc1nc(NCc2cccc(Cl)c2F)nc2c(CN)cccc12)C(C)(C)C [Example 87, (R)-8-(aminomethyl)-N^2-(3-chloro-2-fluorobenzyl)-N^4-(3,3-dimethylbutan-2-yl)quinazoline-2,4-diamine] | > 5 | 5 to 30 |
| Cc1cc(F)cc(Nc2nc(N[C@H](C)c3cccs3)c3cccc(C4=CCNCC4)c3n2)c1 [Example 89, (R)—N^2-(3-fluoro-5-methylphenyl)-8-(1,2,3,6-tetrahydropyridin-4-yl)-N^4-(1-(thiophen-2-yl)ethyl)quinazoline-2,4-diamine] | 1 to 5 | 1 to 5 |
| C[C@@H](Nc1nc(NCC2CCCCC2)nc2c(C3=CCNCC3)cccc12)c1cccs1 [Example 90, (R)—N^2-(cyclohexylmethyl)-8-(1,2,3,6-tetrahydropyridin-4-yl)-N^4-(1-(thiophen-2-yl)ethyl)quinazoline-2,4-diamine] | 1 to 5 | 1 to 5 |
